Data reported in the supplement of paper PMC5579334.

Experiments:
YST-1 = experiment: relative IC50 (inflection point of fitted dose-response curve, CellTiter-Glo viability, 72 h; top asymptote may be below 50% inhibition); higher = less potent
Summary of the method: (§1)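 MPNST cell lines and primary human Schwann cells (750–1000 cells per well) went into 384-well plates preprinted with each compound at five concentrations in 10-fold steps. Plates were incubated 72 h at 37 °C, 5% CO2. Viability was read as CellTiter-Glo ATP luminescence, scaled between vehicle and positive-control wells, with duplicates averaged where present. Percent inhibition is at the top concentration; drug sensitivity score and relative IC50 (censored at top concentration) come from four-parameter logistic fits.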

HS-PSS [1] = experiment: as above
Summary of the method: as §1

HS-PSS [2] = experiment: relative IC50 (inflection point of fitted dose-response curve, CellTox-Green cytotoxicity, 72 h; top asymptote may be below 50%); higher = less potent
Summary of the method: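 MPNST cell lines and primary human Schwann cells were incubated 72 h at 37 °C in 384-well plates holding five 10-fold compound dilutions. CellTox-Green was added before seeding at a final 1:1000 dilution and reported fluorescence from DNA released by disrupted cells. Signals were scaled to vehicle and positive-control wells, and cultures failing plate quality control were dropped. Drug sensitivity score and relative IC50 come from four-parameter logistic fits, with IC50 censored at the top concentration.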

HS-Sch-2 = experiment: relative IC50 (inflection point of fitted dose-response curve, CellTiter-Glo viability, 72 h; top asymptote may be below 50% inhibition); higher = less potent
Summary of the method: as §1

Row | Compound | relative IC50 (YST-1) [nM] | relative IC50 (HS-PSS [1]) [nM] | relative IC50 (HS-PSS [2]) [nM] | relative IC50 (HS-Sch-2) [nM]
1 | CC(C)(C)C[C@@H]1N[C@@H](C(=O)N[C@H]2CC[C@H](O)CC2)[C@H](c2cccc(Cl)c2F)[C@]12C(=O)Nc1cc(Cl)ccc12 | 140 | 3280 | > 10000 | 
2 | CCc1cc(Nc2nccc(-c3c(-c4ccc(OC)c(C(=O)Nc5c(F)cccc5F)c4)nc4ccccn34)n2)c(OC)cc1N1CCC(N2CCN(S(C)(=O)=O)CC2)CC1 | 31.2 | > 10000 | > 10000 | 
3 | CNC(=O)c1c(F)cccc1Nc1nc(Nc2cc3c(cc2OC)CCN3C(=O)CN(C)C)nc2[nH]ccc12 | 73 | 32.1 |  | 
4 | CNc1nc(-c2ccc3c(N)n[nH]c3c2)cc(N2C[C@@H](C(=O)NC3CCCCC3)CC[C@H]2C)n1 | 585 | 3050 | > 10000 | 
5 | COCC(=O)NC/C=C/c1ccc2ncnc(Nc3ccc(Oc4ccc(C)nc4)c(C)c3)c2c1 |  | 1540 | > 10000 | 1250
6 | COc1cc2ncnc(Oc3cccc(NC(=O)Nc4cc(C(C)(C)C(F)(F)F)on4)c3)c2cc1OC |  | > 10000 | > 10000 | > 10000
7 | C[C@H]1Oc2cc(cnc2N)-c2c(nn(C)c2C#N)CN(C)C(=O)c2ccc(F)cc21 | > 1000 | 10.7 | > 1000 | 
8 | Cc1cccc(CC(=O)N2CCc3c2ccc(-c2cn(C)c4ncnc(N)c24)c3F)n1 |  | 993 |  | 
9 | O=c1[nH]c(C2CCCN2)nc2c1oc1ccc(Cl)cc12 (centres undefined) | 1220 | 1500 |  | 
10 | CC1CCC(n2c3cnccc3c3cnc(Nc4ccc5c(n4)CCN(C(=O)CO)C5)nc32)CC1 (centres undefined) [AMG-925] |  | > 1000 | > 1000 | 
11 | CN(C)C(=O)c1ccc(S(=O)(=O)c2ccc(NC(=O)[C@@](C)(O)C(F)(F)F)c(Cl)c2)cc1 [AZD7545] | > 10000 | 3910 | > 10000 | 
12 | Cc1cc([C@@H](C)Nc2ccccc2C(=O)O)c2nc(N3CCOCC3)cc(=O)n2c1 [AZD-6482] |  | > 2500 | > 2500 | > 2500
13 | CCc1cc2c(cc1N1CCC(N3CCOCC3)CC1)C(C)(C)c1[nH]c3cc(C#N)ccc3c1C2=O [Alectinib] |  | 34.8 | > 1000 | > 1000
14 | Cc1cc(-c2nc(-c3ccc(OC(F)(F)F)cc3)no2)nn1Cc1ccnc(N2CCN(C3CC3)CC2)c1 [BAY 87-2243] |  | 0.66 | > 1000 | 0.63
15 | Cc1ccc(NC(=O)c2ccc(CN3CC[C@H](N(C)C)C3)c(C(F)(F)F)c2)cc1Nc1nccc(-c2cncnc2)n1 [Bafetinib] | 259 | > 1000 | > 1000 | 
16 | Cn1cnc2c(F)c(Nc3ccc(Br)cc3F)c(C(=O)NOCCO)cc21 [Binimetinib] | > 1000 | > 1000 | > 1000 | 
17 | CCN(CC)CCN(Cc1ccc(-c2ccc(C(F)(F)F)cc2)cc1)C(=O)Cn1c(SCc2ccc(F)cc2)nc(=O)c2c1CCC2 [Darapladib] |  | 224 | 250 | 192
18 | C[C@H](Nc1ncnc2nc[nH]c12)c1cc2cccc(Cl)c2c(=O)n1-c1ccccc1 [Duvelisib] |  | > 500 |  | 
19 | c1cn2cc(-c3ccc4cn[nH]c4c3)nc(Nc3ccc(N4CCOCC4)cc3)c2n1 [Entospletinib] |  | > 5000 | > 5000 | > 5000
20 | NS(=O)(=O)NCCNc1nonc1/C(=N/O)Nc1ccc(F)c(Br)c1 [Epacadostat] |  | > 10000 | > 10000 | 
21 | CCNc1nc(Nc2cc(F)c(C(=O)N3CCOCC3)cc2OC)ncc1C(F)(F)F [GNE-7915] | > 1000 | > 1000 | > 1000 | 
22 | O=C(O)c1ccc(O)c2ncccc12 [IOX-1] | 36600 | > 100000 | > 100000 | 
23 | CCC(C)n1ncn(-c2ccc(N3CCN(c4ccc(OCC5COC(Cn6cncn6)(c6ccc(Cl)cc6Cl)O5)cc4)CC3)cc2)c1=O (centres undefined) [Itraconazole] | 1540 | 904 | > 5000 | 
24 | COc1cc2nccc(Oc3ccc(NC(=O)NC4CC4)c(Cl)c3)c2cc1C(N)=O [Lenvatinib] |  | > 2500 | > 2500 | 
25 | Cc1cnc(-c2ccccc2C(C)C)nc1NCc1ccc(-n2ccnn2)cc1 [ML323] |  | 1670 | > 10000 | 1460
26 | CNC(=O)[C@@H](NC(=O)[C@H](CC(C)C)[C@H](O)C(=O)NO)C(C)(C)C [Marimastat] | > 10000 | > 10000 | > 10000 | 
